Laboratory results published in PMC7561186, “Rational design of balanced dual-targeting antibiotics with limited resistance” (PLoS Biology, 2020).
“And” between values parts separate entries of the source, which are not always exact repeats. Equal values may be shown once. Read-outs that look alike come from different tables or passages of the source.

Legend:
Streptococcus pneumoniae = experiment: MIC, broth microdilution (CLSI); assay type: cell-based
Description: (§1) MICs were determined using a standard serial broth microdilution technique according to the CLSI guidelines. Briefly, bacterial strains were inoculated onto MHBII agar plates and were grown overnight at 37 °C. Next, 3 individual colonies from each strain were inoculated into 1 mL MHBII medium and propagated at 37 °C, 250 rpm overnight. In the cases of Enterococcus and Streptococcus sp., cells were plated to BHI agar plates, and BHI broth was used to determine MICs. […] Following dilutions, each well was seeded with 5×10^4 bacterial cells. All measurements were performed in 3 parallel replicates and to avoid possible edge effects in microwell plates, side rows (A and H) were filled with sterile medium. Following inoculations, plates were covered with lids and wrapped in polyethylene plastic bags to minimize evaporation but allow for O2 transfer. Plates were incubated at 37 °C under continuous shaking at 150 rpm for 18 hours. After incubation, OD600 of each well was measured using a BioTek Synergy 2 microplate reader.

Pseudomonas aeruginosa = experiment: MIC, broth microdilution (CLSI); assay type: cell-based
Description: as §1

Shigella flexneri = experiment: MIC, broth microdilution (CLSI); assay type: cell-based
Description: as §1

Enterococcus faecalis = experiment: MIC, broth microdilution (CLSI); assay type: cell-based; settings: Enterococcus faecalis ATCC 29212
Description: as §1

Neisseria gonorrhoeae = experiment: MIC, broth microdilution (CLSI); assay type: cell-based
Description: as §1

Haemophilus influenzae = experiment: MIC, broth microdilution (CLSI); assay type: cell-based
Description: as §1

Klebsiella pneumoniae = experiment: MIC, broth microdilution (CLSI); assay type: cell-based; settings: Klebsiella pneumoniae ATCC 10031
Description: as §1

Helicobacter pylori = experiment: MIC, broth microdilution (CLSI); assay type: cell-based; settings: Helicobacter pylori ATCC 43504
Description: as §1

Staphylococcus aureus = experiment: MIC, broth microdilution (CLSI); assay type: cell-based
Description: as §1

Escherichia coli = experiment: MIC, broth microdilution (CLSI); assay type: cell-based; settings: Escherichia coli ATCC 25922
Description: as §1

Clostridium difficile = experiment: MIC, broth microdilution (CLSI); assay type: cell-based
Description: as §1

Streptococcus pyogenes = experiment: MIC, broth microdilution (CLSI); assay type: cell-based
Description: as §1

Listeria monocytogenes = experiment: MIC, broth microdilution (CLSI); assay type: cell-based; settings: Listeria monocytogenes ATCC 19111
Description: as §1

HepG2 cells = settings: LDH assay
Description: Cytotoxicity of compounds on HepG2 and MCF-7 mammalian cell lines was determined by using a standard LDH assay. Briefly, HepG2 and MCF-7 cells were cultured in Eagle’s MEM medium (from Gibco) supplemented with 2 mM L-glutamine (Sigma), 100 U/mL penicillin (Sigma), and 100 μg/mL streptomycin (Sigma), and 10% FBS (Gibco) at 37 °C and under 5% CO2. Next, LDH assays were performed according to manufacturer instructions (Thermo Fisher Scientific, Massachusetts, USA). By using a CyQUANT LDH Cytotoxicity Assay Kit. Firstly, the cells were seeded in 96-well microtiter plates at 10^5 cells/mL (100 μL/well) and allowed to attach overnight. […] Lysis buffer (10 μL, Thermo Fisher Scientific) was then added to the maximal LDH activity control wells and incubated additional 45 minutes. The cell culture supernatant (50 μL) was then transferred to a new 96-well plate and mixed with 50 μL of the reaction mixture. After 30 minutes on room temperature, reactions were stopped with 50 μL of the Stop solution. Absorbance (490 nm and 680 nm) was measured with the automatic microplate reader Synergy 4 Hybrid Microplate Reader (BioTek, VT, USA). All experiments were performed in triplicates and repeated 3 times. Statistical significance (P < 0.05) was calculated with 2-tailed Welch’s t-test between treated groups and DMSO. The percentage of cytotoxicity was determined according to the following equation: %Cytotoxicity=(CompoundtreatedLDHactivity-SpontaneousLDHactivity/MaximumLDHactivity-SpontaneousLDHactivity)*100

[1] = system: S. aureus ATCC 700699 VISA; experiment: Time-dependent killing; assay type: cell-based; settings: for Time-kill bacterial count: 10xMIC; for Colony numbers: time-kill raw counts, Samples 1-3
Description: Time-dependent killing experiments were performed as previously. S. aureus ATCC 700699 VISA cells were inoculated to MHBII agar plates and grown overnight at 37 °C. Next, 3 independent stationer-phase starter cultures were grown at 37 °C, 250 rpm overnight, in 3 × 1 mL MHBII broth. Next, 100-fold diluted cultures were prepared from each in 20 mL fresh MHBII medium and grown at 37 °C, 250 rpm until early exponential phase (OD600 = 0.3–0.4; i.e., 5 × 10^5 cells/mL). […] Cells were treated with antibiotics in Erlenmeyer flasks at 37 °C, 150 rpm for 48 hours. […] Next, 50 μL from each dilution were plated on MHBII agar plates, and plates were incubated overnight at 37 °C to calculate CFU per mL.

[2] = system: S. aureus ATCC 700699 and S. aureus ATCC 43300; experiment: Spontaneous frequency-of-resistance assay; assay type: cell-based
Description: Prior to plating, bacteria were grown overnight in MHBII medium at 37 °C, 250 rpm, collected by centrifugation, and washed once in equal volumes of MHBII broth. From this concentrated cell suspension (250 μL), approximately 10^10 cells were then plated to each MHBII agarose plates. […] All experiments were performed in at least 3 replicates. Plates were grown at 37 °C for 72 hours. Total CFUs were determined simultaneously in each experiment by plating appropriate dilutions to antibiotic-free MHBII agar plates. Finally, resistance frequencies for each strain were calculated by dividing the number of colonies formed after a 72-hour incubation at 37 °C by the initial viable cell count.

[3] = system: novobiocin-resistant S. aureus VISA ATCC 700699 mutants; experiment: MIC against novobiocin-resistant (novobiocin-adapted) strains; assay type: cell-based; settings: for MIC: Staphylococcus aureus
Description: as §1

Compound `Cc1[nH]c(C(=O)Nc2nc3c(OCc4ccccc4)cc(C(=O)O)cc3s2)c(Cl)c1Cl` [ULD2] has an MIC (Streptococcus pneumoniae; Streptococcus pneumoniae ATCC 49619) of 0.25 µg/mL, an MIC (Streptococcus pneumoniae; Streptococcus pneumoniae ATCC 51916) of 0.25 µg/mL and an MIC (Streptococcus pneumoniae; Streptococcus pneumoniae ATCC 700673) of 0.25 µg/mL. The MIC (Pseudomonas aeruginosa; ATCC27853, Pseudomonas aeruginosa ATCC 27853) was 2 µg/mL, the MIC (Pseudomonas aeruginosa; Pseudomonas aeruginosa ATCC 27853) was 2 µg/mL and the MIC (Pseudomonas aeruginosa; Pseudomonas aeruginosa B3-1811, Ciprofloxacin-R, Cephalosporin-R) was 16 µg/mL. The MIC (Shigella flexneri; Shigella flexneri 668) was 16 µg/mL, the MIC (Shigella flexneri; Shigella flexneri HNCMB 20018) was 8 µg/mL and the MIC (Enterococcus faecalis) was < 0.0312 µg/mL. For the same compound, the MIC (Neisseria gonorrhoeae; CCUG57598, Neisseria gonorrhoeae CCUG 57598) was ≤ 0.0312 µg/mL, the MIC (Neisseria gonorrhoeae; Neisseria gonorrhoeae ATCC 700825) was < 0.0312 µg/mL and the MIC (Neisseria gonorrhoeae; Neisseria gonorrhoeae CCUG 57598) was < 0.0312 µg/mL. For the same compound, the MIC (Haemophilus influenzae; ATCC49247, Haemophilus influenzae ATCC 49247) was 0.125 µg/mL, the MIC (Haemophilus influenzae; Haemophilus influenzae ATCC 35056) was 1 µg/mL and the MIC (Haemophilus influenzae; Haemophilus influenzae ATCC 49247) was 0.125 µg/mL. It also gave an MIC (Klebsiella pneumoniae; ATCC10031) of 4 µg/mL, an MIC (Klebsiella pneumoniae) of 4 µg/mL and an MIC (Helicobacter pylori) of 4 µg/mL. It also gave an MIC (Staphylococcus aureus; Staphylococcus aureus (strain not given), MRSA (SCCmec type IV), Oxacillin-R, VSSA, Cephalosporin-R, Erythromycin-R) of 0.063 µg/mL, an MIC (Staphylococcus aureus; Staphylococcus aureus ATCC 29213) of 0.5 µg/mL and an MIC (Staphylococcus aureus; Staphylococcus aureus ATCC 33594, MSSA, VSSA) of 0.125 µg/mL. The MIC (Staphylococcus aureus; Staphylococcus aureus ATCC 43300, MRSA) was 0.0625 µg/mL, the MIC (Staphylococcus aureus; Staphylococcus aureus ATCC 700699 (Mu50, NRS1), MRSA, VISA) was < 0.0312 µg/mL and the MIC (Staphylococcus aureus; Staphylococcus aureus CDC AR-BANK 0218, MRSA, VISA) was 0.125 µg/mL. The MIC (Staphylococcus aureus; Staphylococcus aureus ECL 2963646, MRSA, VRSA) was < 0.0312 µg/mL, the MIC (Staphylococcus aureus; Staphylococcus aureus NRS271, MRSA, Linezolid-R) was 0.25 µg/mL and the MIC (Staphylococcus aureus; Staphylococcus aureus USA300, ATCC BAA-1717, MRSA) was 0.063 µg/mL. For the same compound, the MIC (Staphylococcus aureus; Staphylococcus aureus USA400, BAA-1707, NRS123, MRSA) was 0.125 µg/mL, the MIC (Staphylococcus aureus; Staphylococcus aureus, ATCC 700699 / MRSA / NRS 1 / VISA, S. aureus ATCC 700699 (Mu50, NRS1), MRSA, VISA) was ≤ 0.0312 µg/mL and the MIC (Staphylococcus aureus; Staphylococcus aureus, S. aureus ECL 2963646, MRSA, VRSA) was ≤ 0.0312 µg/mL. For the same compound, the MIC (Escherichia coli) was 16 µg/mL, the MIC (Clostridium difficile; Clostridioides difficile, BAA1875) was ≤ 0.0312 µg/mL and the MIC (Clostridium difficile; Clostridium difficile BAA-1875) was < 0.0312 µg/mL. The MIC (Streptococcus pyogenes; Streptococcus pyogenes ATCC 14289) was 0.25 µg/mL, the MIC (Streptococcus pyogenes; Streptococcus pyogenes ATCC 19615) was 0.125 µg/mL and the MIC (Listeria monocytogenes; ATCC19111) was 0.125 µg/mL. The MIC (Listeria monocytogenes) was 0.125 µg/mL, the “Max. % inhibition at 100 µM” value (HepG2 cells) was “Max. % inhibition at 100 µM: 1.96%” and the Time-kill bacterial count ([1]; time 0 hour) was 2.80E+05. For the same compound, the Time-kill bacterial count ([1]; time 3 hour) was 9.90E+04, the Time-kill bacterial count ([1]; time 6 hour) was 5.60E+04 and the Time-kill bacterial count ([1]; time 12 hour) was 7.00E+03. It also gave a Time-kill bacterial count ([1]; time 18 hour) of 4.90E+02, a Time-kill bacterial count ([1]; time 24 hour) of 1.90E+02 and a Time-kill bacterial count ([1]; time 48 hour) of 1.70E+01. For the same compound, the “cell killing (bactericidal) activity” value ([1]; 10× MIC, S. aureus ATCC 700699 (VISA), in words) was “exceed that of fusidic acid”, the Colony numbers ([1]; time 0 h, Dilution 100) was 145 and 132 and 137 and the Colony numbers ([1]; time 3 h, Dilution 100) was 56 and 39 and 53. The Colony numbers ([1]; time 6 h, Dilution 100) was 28 and 24 and 32, the Colony numbers ([1]; time 18 h, Dilution 1) was 31 and 22 and 20 and the Colony numbers ([1]; time 48 h, Dilution 0.5) was 1 and 2. For the same compound, the resistant mutants emerged ([2]; 4×10^12 S. aureus ATCC 700699 (VISA) cells, 4 times the wild-type MIC, in words) was “no ULD2 resistant mutants have emerged”, the “mutant prevention concentration (MPC)” value ([2]; S. aureus ATCC 700699 (VISA), estimate) was 0.08 µg/mL and the “Spontaneous frequency-of-resistance (replicates)” value ([2]; Staphylococcus aureus (MRSA) ATCC 43300, 2xMIC) was 1.00E-12 and 1.529e-10 and 1.99e-10 and 7.692e-11 and 9.00E-10 and 1.80E-09 and 1.43E-10. The “Spontaneous frequency-of-resistance (replicates)” value ([2]; Staphylococcus aureus (MRSA) ATCC 43300, 4xMIC) was 5.00E-11 and 1.67E-10 and 7.14E-11 and 1.00E-12, the “Spontaneous frequency-of-resistance (replicates)” value ([2]; Staphylococcus aureus (MRSA) ATCC 43300, 8xMIC) was 1.00E-12 and the “Spontaneous frequency-of-resistance (replicates)” value ([2]; Staphylococcus aureus (VISA) ATCC 700699, 2xMIC) was 1.00E-12 and 8.77E-11. The “Spontaneous frequency-of-resistance (replicates)” value ([2]; Staphylococcus aureus (VISA) ATCC 700699, 4xMIC) was 1.00E-12, the “Spontaneous frequency-of-resistance (replicates)” value ([2]; Staphylococcus aureus (VISA) ATCC 700699, 8xMIC) was 1.00E-12 and the “cross-resistance of novobiocin-resistant isolates” value ([3]; 9 independently evolved novobiocin-resistant isolates, in words) was “no cross-resistance”. For the same compound, the MIC ([3]; WT S. aureus VISA ATCC 700699, read-out: MIC) was 0.02 µg/mL, the MIC ([3]; novobiocin-adapted Evolved 1) was 0.016 µg/mL and the MIC ([3]; novobiocin-adapted Evolved 2) was 0.016 µg/mL. The MIC ([3]; novobiocin-adapted Evolved 3) was 0.016 µg/mL, the MIC ([3]; novobiocin-adapted Evolved 4) was 0.063 µg/mL and the MIC ([3]; novobiocin-adapted Evolved 5) was 0.031 µg/mL. It also gave an MIC ([3]; novobiocin-adapted Evolved 6) of 0.016 µg/mL, an MIC ([3]; novobiocin-adapted Evolved 7) of 0.016 µg/mL and an MIC ([3]; novobiocin-adapted Evolved 8) of 0.016 µg/mL. The MIC ([3]; novobiocin-adapted Evolved 9) was 0.016 µg/mL.
